# Measurements published in PMC8163394 (2020).
# Experiments:
# [1] = system: d(CGCAAATTTGCG)2 (DNA, duplex) CGCAAATTTGCG; test: emission titration (complex, decrease then increase), TRIR; details: 50 mM potassium phosphate; pH 7; [Ru] 10 μM
# [2] = system: poly(dG-dC) (DNA, polymer) GC; test: emission titration, McGhee-von Hippel fit; details: 10 mM phosphate buffer (sodium in Fig. 2, potassium in Fig. S1); pH 7, air-saturated; [Ru] 20 μM; per base
# [3] = system: d(CGCGAATTCGCG)2 (DNA, duplex) CGCGAATTCGCG; test: emission titration (quenching), TRIR; details: 50 mM potassium phosphate; pH 7; [Ru] 10 μM
# [4] = system: poly(dA-dT) (DNA, polymer) AT; test: emission titration (enhancement), TRIR; details: 10 mM sodium phosphate, [Ru] 8 μM
# [5] = system: d(GCGCGCGCGC)2 (DNA, duplex) GCGCGCGCGC; test: TRIR and transient absorption; details: 50 mM potassium phosphate; pH 7, D2O
binding [1],Kb [2],binding [3],binding ([4]; saturation not reached),binding [5],binding ([4]; reaches saturation),Structure (SMILES)
yes,1.2 ± 0.1 × 10^6 M^-1,yes,yes,yes,,[Ru+2].c1ccc2nc3c4cccnc4c4ncccc4c3nc2c1.c1cnc2c(ccc3nccnc32)n1.c1cnc2c(ccc3nccnc32)n1 [Λ-1]
yes,3.6 ± 0.2 × 10^6 M^-1,yes,,yes,yes,[Ru+2].c1ccc2nc3c4cccnc4c4ncccc4c3nc2c1.c1cnc2c(ccc3nccnc32)n1.c1cnc2c(ccc3nccnc32)n1 [Δ-1]
